We go through one molecule from patent US5506102A (priority 1993, dated 1996).

Each structure is given as a SMILES string.

Assay [1] concerns PR-B (co-expressed with PR-A). Nature of the assay: PR-A effect on PR-B mediated PRE2 tk-LUC transcription (co-transfection). In kind it is cell-based, human. As to the method:
(§1) FIGS. 4A-4B are a series of graphs showing CV-1 ([…]) or HepG2 (FIG. 4B) cells that were transiently transfected with either […] of phPR-B or phPR-A alone, or phPR-B in the presence of increasing concentrations of phPR-A, together with 5 µg/ml of the PRE2 tk-LUC reporter and 5 µg/ml of pCH110 as an internal control. HeLa cells (FIG. 4C) were transfected with either phPR-B or phPR-A together with 5 µg/ml of the pTAT2950 reporter and 5 µg/ml of pCH110 as an internal control. […] The relative luciferase activity is calculated by dividing the normalized luciferase value at a given point by that obtained in the absence of transfected receptor or ligand. The data shown represent the mean +/- average deviation from the mean of triplicate estimations;
(§2) Both reporter plasmids were digested with XhoI and HindIII restriction enzymes and a 6.7 Kb fragment from MMTV-LUC and a 0.12 Kb fragment from PRE2 tk-CAT were isolated and ligated, resulting in a plasmid called PRE2 tk-LUC.
(§3) Cells were seeded in 12-well, 96-well or 10 cm tissue culture plates. […] 20 μg of DNA/ml of transfection buffer were used in each transfection reaction. […]

For the next assay, the target named is T1, PR-A (Homo sapiens, UniProt P06401).
T1 sequence (P06401 165-933): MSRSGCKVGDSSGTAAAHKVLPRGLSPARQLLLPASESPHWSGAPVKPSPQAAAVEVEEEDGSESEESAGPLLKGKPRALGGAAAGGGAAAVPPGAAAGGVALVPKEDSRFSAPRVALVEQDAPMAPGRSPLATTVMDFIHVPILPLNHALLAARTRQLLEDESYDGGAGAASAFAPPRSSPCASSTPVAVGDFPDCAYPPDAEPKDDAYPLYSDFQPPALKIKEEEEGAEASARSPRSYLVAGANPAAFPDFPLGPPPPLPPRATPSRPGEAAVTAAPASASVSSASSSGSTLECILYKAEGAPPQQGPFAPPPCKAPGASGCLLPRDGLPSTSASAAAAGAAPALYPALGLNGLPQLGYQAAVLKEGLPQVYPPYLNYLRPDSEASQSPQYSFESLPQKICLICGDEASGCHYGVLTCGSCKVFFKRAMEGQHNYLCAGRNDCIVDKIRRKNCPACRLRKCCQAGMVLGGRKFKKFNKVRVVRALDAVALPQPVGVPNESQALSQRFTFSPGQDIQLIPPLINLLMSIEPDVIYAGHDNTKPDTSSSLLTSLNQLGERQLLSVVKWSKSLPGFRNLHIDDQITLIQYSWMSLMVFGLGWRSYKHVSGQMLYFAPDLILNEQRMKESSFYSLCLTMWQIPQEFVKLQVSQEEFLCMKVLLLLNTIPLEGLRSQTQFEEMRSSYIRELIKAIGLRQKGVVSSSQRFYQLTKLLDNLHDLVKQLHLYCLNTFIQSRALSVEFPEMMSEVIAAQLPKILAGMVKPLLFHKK
Nature of the assay: PR-A transactivation of PRE2 tk-LUC. The format is cell-based. More on the design: PRE2 tk-LUC in CV-1. As to the method: as §1, §2, §3

Setting [2] is: CV-1, 10^-7 M progesterone, FIG. 4A.
Setting [3] is: HepG2, 10^-7 M progesterone, FIG. 4B.

Consider `CC(=O)[C@H]1CC[C@H]2[C@@H]3CCC4=CC(=O)CC[C@]4(C)[C@H]3CC[C@]12C` [progesterone], for which the “PR-A effect on PR-B activity on PRE2 tk-LUC” value in assay [1] (setting [2]) is “repression of PR-B activity”. Also, the “PR-A effect on PR-B transcriptional activity on PRE2 tk-LUC” value in assay [1] (setting [3]) is “no effect on PR-B transcriptional activity”. Besides, the “PR-A transcriptional activity on PRE2 tk-LUC” value on PR-A (setting [2]) was “transcriptionally inactive”; at PR-A (setting [3]) it was “activator of transcription”.
